Test in all cases: DTP human tumour cell line panel, 48 h
The test system of test [1] is A498 renal.
Test [2] relates to A549 NSCLC.
In test [3] the test system is BT-549 breast.
Test [4] relates to CCRF-CEM leukemia.
The test system of test [5] is HCT-116 colon.
Test [6] has as its system HS 578T breast.
The test system of test [7] is LOX IMVI melanoma.
Test [8] relates to RXF 393 renal.
Test [9] relates to SR leukemia.
Test [10] concerns T-47D breast.

Values joined by “and” are separate entries in the source; they are usually repeats but may differ in a detail not shown here. Equal entries are not always repeated.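 Growth conditions: 96-well plates. Treatment: test compound, 48 hours, 5 concentrations. Analysis: linear interpolation between bracketing concentrations; unreached endpoints set to highest concentration. GI50 is the concentration that inhibits growth by half. TGI: total growth inhibition.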

Turning to `COc1ccc(C(=O)/C=C/c2c(C(F)(F)F)nc3ccccn23)cc1OC`, the GI50 (as a rule, the concentration that inhibits growth by half) in test [1] was 3.46 µM; in [2], 3.38 µM; in [3], 2.34 µM; in [4], 0.46 µM; in test [5], 0.561 µM; in test [6], 2.31 µM. Moreover, the GI50 in test [7] was 0.584 µM; in [8], 1.97 µM; in test [9] it was 0.272 µM; in [10] it was 1.78 µM. Besides, the TGI – broadly, the concentration at which net growth stops – is 21.7 µM in test [1]; > 100 µM in test [2]; 43.4 µM in test [3]; 22.1 µM in test [4]; 4.26 µM in [5]; > 100 µM in [6]. Moreover, the total growth inhibition concentration (TGI) in [8] was determined as 8.68 µM; in test [9], 0.964 µM; in [10], 6.21 µM.

With `COc1ccc2c(c1)C(=O)/C(=C/c1cccc(OCC(=O)c3ccc([N+](=O)[O-])cc3)c1)CO2`, the GI50 is 14.3 µM in [1]; 6.72 µM in test [2]; 1.91 µM in test [3]; 2.32 µM in [4]; 1.33 µM in test [5]; 2.73 µM in test [6]. In addition, the GI50 in test [7] is 1.47 µM; in test [8], 1.89 µM; in test [9], 1.15 µM; in [10] it was 1.65 µM. For the same molecule, the total growth inhibition concentration (TGI) in [1] came to 27.3 µM; in test [2], 22.8 µM; in [3], 4.85 µM; in [5], 2.67 µM; in test [6] it was 12.2 µM; in test [7], 2.88 µM. Further, the results for the TGI in [8], in test [9] and in [10] were 4.32 µM, 12.9 µM and 4.54 µM, respectively.

In the case of `O=c1oc2ccc(I)cc2c(=O)n1-c1ccc(I)cc1F`, the concentration for 50% growth inhibition (GI50) is 0.166 µM in test [1]; 3 µM in test [2]; 0.403 µM in test [3]; 1.89 µM in test [4]; 0.472 µM in test [5]; 0.324 µM in test [6]. Also, the GI50 in test [7] was 0.532 µM; in test [8] it was 0.861 µM; in [9], 0.61 µM; in test [10], 0.298 µM. The concentration for total growth inhibition (TGI) was 0.546 µM in test [1]; > 51.8 µM in test [2]; 2.02 µM in [3]; 10.8 µM in test [4]; 2.27 µM in [5]; 4.78 µM in [6]. Also, the TGI was 4.66 µM in test [7], 4.16 µM in [8], > 38.2 µM in test [9] and 3.49 µM in test [10].

Turning to `CCc1nc(N)nc(N)c1-c1ccc(N(C)Cc2ccccc2)c([N+](=O)[O-])c1`, the total growth inhibition concentration (TGI) is 19.8 µM in [1]; 16 µM in test [2]; 18.4 µM in test [3]; 12.7 µM in test [4]; 10 µM in test [5]; 72.7 µM in test [6]. In addition, the total growth inhibition concentration (TGI) in [7] was 22.2 µM; in test [8] it was 22.9 µM; in test [9], 4.16 µM; in test [10] it was 21.4 µM.

`O=[N+]([O-])c1cc(C(F)(F)F)cc2n[se]nc12`: the concentration for total growth inhibition (TGI) came to 31.5 µM in [1]; 27 µM in test [2]; 7.52 µM in [3]; 10.8 µM in test [4]; 3.46 µM in [5]; 75.6 µM in [6]. Moreover, the TGI in test [7] worked out at 14.4 µM; in test [8] it was 4.91 µM; in test [9], 4.39 µM; in test [10] it was 10.4 µM.

As to `CC(C)c1ccc(C(O)(C(=O)O)c2ccc(C(C)C)cc2)cc1`, the TGI in test [1], in test [2], in test [3], in test [4], in test [5] and in test [6] was > 100 µM throughout. The concentration for total growth inhibition (TGI) in test [7], in [8], in test [9] and in test [10] was > 100 µM each time.

On to `N#Cc1ccc(C(=O)c2cnn(-c3ccc(F)cc3)c2N)cc1`, for which the GI50 in [1], in [2], in test [3], in test [4], in test [5] and in [6] was > 25 µM each time. Moreover, the GI50 in test [7], in test [8], in test [9] and in test [10] was > 25 µM in each case. The TGI in test [1], in test [2], in test [3], in test [4], in test [5] and in test [6] was > 25 µM throughout. For the same molecule, the total growth inhibition concentration (TGI) in test [7], in [8], in test [9] and in test [10] was > 25 µM in each case.

For the molecule `CN(CO)c1nc(N(C)CO)nc(N(C)CO)n1`, the concentration for total growth inhibition (TGI) in test [1] is 60.7 µM and 54 µM; in test [2], 64 µM and 26.3 µM; in [3] it was 43.1 µM and 36.9 µM; in test [4], 73.6 µM; in test [5], 53.2 µM and 47.3 µM; in [6], 55 µM and 78.3 µM. In addition, the TGI in test [7] was 36.6 µM and 26.8 µM; in [8], 34.1 µM and 22.9 µM; in test [9] it was > 77.1 µM and 1080 µM; in test [10] it was 67.7 µM and 211 µM. Besides, the GI50 was 23.5 µM in test [2]; 25.5 µM in test [4]; 21.7 µM and 11.7 µM in test [5]; 21.4 µM in [6]; 16.2 µM in test [7]; 18 µM in [8]. Further, the GI50 is 28.4 µM in [9] and 25 µM in test [10].

On to `COc1ccccc1-c1ccc2c(N)c(C(=O)c3ccc4c(c3)OCO4)sc2n1`, for which the GI50 was 2.39 µM in test [1]; 4.05 µM in test [2]; 7.21 µM in [3]; 5.27 µM in test [4]; 3.68 µM in [5]; 7.97 µM in test [6]. The GI50 is 4.61 µM in test [7], 3.01 µM in test [8], 2.99 µM in [9] and 3.39 µM in test [10]. The TGI in [1] was 13.8 µM; in test [2], 16.6 µM; in [3], 30.2 µM; in test [4] it was > 100 µM; in test [5] it was 15 µM; in test [6], 47.1 µM. Further, the concentration for total growth inhibition (TGI) came to 21.6 µM in test [7], 11.2 µM in test [8], 31.1 µM in [9] and 14.4 µM in test [10].
